Reference: patent publication US10993955B2, “Medicament for use in treating diabetes” (Shandong Zhonghai Pharmaceutical CO. LTD, priority 2016, dated 2021)

Tested on: diabetic patients
Assay: Therapeutic effect in diabetic patients (blood glucose, urine glucose), 3 months treatment
Type: in vivo, human
Text: The medicament hereof is used to compare the therapeutic effects in diabetic patients, and the details are as follows:
The applicant has divided 100 diabetic patients into treatment group. Among these patients, 6 are aged 16 to 30 years old, 14 are 31 to 45 years old, 28 are 46 to 60 years old, and 52 are 61 to 75 years old.
During the treatment, the patients in the treatment group discontinue the administration of any other medicaments, and only take the medicament described in Embodiment 3 hereof, once in the morning and evening, 2 g each time; the patients in the control group take D-860 Rastinon according to the package insert, and the patients in treatment group and the control group of the invention were treated and observed for 3 months, and the results are as follows: […]

[1] = diabetic patients aged 16-30, after 3 months treatment
[2] = diabetic patients aged 31-45, after 3 months treatment
[3] = diabetic patients aged 46-60, after 3 months treatment
[4] = diabetic patients aged 61-75, after 3 months treatment

`CCCCNC(=O)NS(=O)(=O)c1ccc(C)cc1` [D-860 Rastinon] showed a Blood sugar [1] of 6.2 mmol/L, a Glucose in urine [1] of 1.0 mmol/L and a Blood sugar [2] of 6.5 to 6.7 mmol/L. It also gave a Glucose in urine [2] of 28.6 to 32.2 mmol/L, a Blood sugar [3] of 7.3 to 7.6 mmol/L and a Glucose in urine [3] of 31 to 35 mmol/L. It also gave a Blood sugar [4] of 9.0 to 9.2 mmol/L and a Glucose in urine [4] of 35 to 58 mmol/L.
